ChEMBL document CHEMBL4393720, “Design, synthesis and biological evaluation of bromophenol-thiazolylhydrazone hybrids inhibiting the interaction of translation initiation factors eIF4E/eIF4G as multifunctional agents for cancer treatment” (Eur J Med Chem, 2019)
Active and inactive are the calls of the source. No cut-off for these calls is given here.

Key:
[1] = MRT in female Sprague-Dawley rat at 10 mg/kg, po measured up to 24 hrs by LC/MS-MS analysis; assay type: ADME, organism-based; settings: in vivo
A549 [2] = assay: Inhibition of colony formation in human A549 cells incubated for 10 days by crystal violet staining based assay; assay type: functional, cell-based
A549 [3] = assay: Antitumor activity against human A549 cells xenografted in athymic nude mouse assessed as decrease in tumor growth at 50 mg/kg, ip administered once daily for 21 days; assay type: functional; settings: 504 h
[4] = MRT in male Sprague-Dawley rat at 10 mg/kg, po measured up to 24 hrs by LC/MS-MS analysis; assay type: ADME, organism-based; settings: in vivo
A549 [5] = assay: Induction of apoptosis in human A549 cells assessed as decrease in Bcl2 level at 1 to 5 uM incubated for 48 hrs by Western blot analysis; assay type: functional, cell-based
[6] = Cmax in male Sprague-Dawley rat at 10 mg/kg, po measured up to 24 hrs by LC/MS-MS analysis; assay type: ADME, organism-based; design: dose 10 mg/kg, route oral; settings: in vivo
[7] = Subacute toxicity in SPF Kunming mouse assessed as heart morphological changes at 2000 mg/kg, po administered once a day for 14 days by H and E staining based microscopic analysis; assay type: organism-based; settings: in vivo, 336 h
A549 [8] = assay: Induction of autophagy in human A549 cells assessed as change in LC3 expression at 1 to 5 uM incubated for 48 hrs by Western blot analysis; assay type: functional, cell-based
[9] = Toxicity in athymic nude mouse xenografted with human A549 cells assessed as effect on heart morphological changes at 25 to 50 mg/kg, ip administered once daily for 21 days by H and E staining based assay; assay type: organism-based; settings: in vivo, 504 h
[10] = Half life in female Sprague-Dawley rat at 10 mg/kg, po measured up to 24 hrs by LC/MS-MS analysis; assay type: ADME, organism-based; settings: in vivo
A549 [11] = assay: Induction of apoptosis in human A549 cells assessed as activation of caspase 3 at 1 to 5 uM incubated for 48 hrs by Western blot analysis; assay type: functional, cell-based

Compound: Fc1ccc(/C=N/Nc2nc(-c3ccc(C(F)(F)F)cc3)cs2)cc1F
- MRT [1]: 1.62 h
- inhibition (A549 [2]): Dose-dependent effect
- inhibition in vivo at 50 mg/kg (A549 [3]): 75%
- MRT [4]: 1.83 h
- Activity (A549 [5]): Active
- Cmax [6]: 650 nM
- Activity [7]: Non-Toxic
- Activity (A549 [8]): Active
- Activity [9]: Non-Toxic
- half-life [10]: 1.12 h
- Activity (A549 [11]): Active
